The subject of assay [1] is Botrytis cinerea S-9. The assay is described as follows: Disease suppressive activity against gray mold, cucumber seedling cotyledon test. The conditions noted are these: strain S-9 (sensitive to antimicrobial agents), incubated at 20°C for three days. Format: in vivo. How it is done:
(§1) The disease suppressive activity of the present compounds I-a, I-c (and I-b), I-d (and I-e), I-f, I-g, I-h, and I-i against the gray mold was tested by the following procedure. A solution of the present compound having a predetermined concentration was coated,with an absorbent cotton block, on the cotyledon of a cucumber seedling seven days after seeding. One day after the coating, an agar disk having a diameter of 5 mm containing Botrytis cinerea was put on the coated cotyledon, the plant was incubated at 20°C for three days, and the disease suppresive activity of the tested compound was observed. In Table 4, Botrytis cinerea RR-4 is a strain resistant to antimicrobial agents (multi-resistant strain), isolated from a diseased seedling of egg plant, and Botrytis cinerea S-9 is a strain sensitive to antimicrobial agents, isolated from a diseased petal of orange blossom. Note, the extent of the disease suppressive effect is expressed by symbols + (no lesion), ± (lesion having a diameter of less than 10 mm formed), and - (lesion having a diameter of not less than 10 mm formed).

The subject of assay [2] is Botrytis cinerea RR-4. Described as above. Format: in vivo. The conditions noted are these: strain RR-4 (multi-resistant strain), incubated at 20°C for three days. How it is done: as §1
Setting [3] is: 32 ppm coated on cucumber seedling cotyledon.
[4] abbreviates: 125 ppm coated on cucumber seedling cotyledon.
The mark [5] stands for this setting: 8 ppm coated on cucumber seedling cotyledon.

For the compound `CCC1C=CC(=O)OC1C=CC(O)(CCN)C(CC(O)C=CC=CC1CCCCC1)OP(=O)(O)O` (stereo not drawn) [I-a], the “Disease suppressive effect to Botrytis cinerea” value (“Disease suppressive effect” below) in assay [1] (setting [3]) is given as “- (- (lesion having a diameter of not less than 10 mm formed))”; in assay [1] (setting [4]) it was “+”; in assay [2] (setting [3]) it was “- (- (lesion having a diameter of not less than 10 mm formed))”; in assay [2] (setting [4]), “+”.
`CCC1C=CC(=O)OC1C=CC(O)(CCN)C(CC(O)C=CC=CC1CCCC(OC(=O)C2CCCCC2)C1)OP(=O)(O)O` (stereo not drawn) [I-f]: the “Disease suppressive effect” value in assay [1] (setting [5]), in assay [1] (setting [3]), in assay [2] (setting [5]) and in assay [2] (setting [3]) was “+” in each case.
`CCC(C)CCC(=O)OC1CCCC(C=CC=CC(O)CC(OP(=O)(O)O)C(O)(C=CC2OC(=O)C=CC2CC)CCN)C1` (stereo not drawn) [I-g]: the “Disease suppressive effect” value in assay [1] (setting [5]), in assay [1] (setting [3]), in assay [2] (setting [5]) and in assay [2] (setting [3]) was “+” throughout.
`CCC1C=CC(=O)OC1C=CC(O)(CCN)C(CC(O)C=CC=CC1CCCC(OC(=O)CCCCC(C)C)C1)OP(=O)(O)O` (stereo not drawn) [I-h]: the “Disease suppressive effect” value in assay [1] (setting [5]) was “- (- (lesion having a diameter of not less than 10 mm formed))”; in assay [1] (setting [3]), “+”; in assay [2] (setting [5]), “- (- (lesion having a diameter of not less than 10 mm formed))”; in assay [2] (setting [3]), “+”.
With `CCCCCCCC(=O)OC1CCCC(C=CC=CC(O)CC(OP(=O)(O)O)C(O)(C=CC2OC(=O)C=CC2CC)CCN)C1` (stereo not drawn) [I-i], the “Disease suppressive effect” value in assay [1] (setting [5]) was “- (- (lesion having a diameter of not less than 10 mm formed))”; in assay [1] (setting [3]), “+”; in assay [2] (setting [5]), “- (- (lesion having a diameter of not less than 10 mm formed))”; in assay [2] (setting [3]), “+”.
As for `CC12CC1(C)C(=O)N(c1cc(Cl)cc(Cl)c1)C2=O` (stereo not drawn) [Procymidone, reference compound], the “Disease suppressive effect” value is recorded as “- (- (lesion having a diameter of not less than 10 mm formed))” in assay [1] (setting [3]), “+” in assay [1] (setting [4]), “- (- (lesion having a diameter of not less than 10 mm formed))” in assay [2] (setting [3]) and “- (- (lesion having a diameter of not less than 10 mm formed))” in assay [2] (setting [4]).

Source of the values: EP0329361A2, “2-pyranone derivatives and process for production thereof” (priority 1988, dated 1989).
